Experimental data: the NIST ThermoML archive (doi:10.1021/je0497303)

Assay: xn = mol fraction of the nth substance listed
Conditions: 101.3 kPa, Liquid, Taylor dispersion method

C1CCCCC1 [cyclohexane] + CCCO
298.15 K
Conditions	binary diffusion coefficient [m2/s]
x2 = 0.03	8.3e-10
x2 = 0.1	6.6e-10
x2 = 0.3	3.9e-10
x2 = 0.5	4.2e-10
x2 = 0.7	6.5e-10
x2 = 0.9	1e-09
x2 = 0.97	1.15e-09

C1CCCCC1 [cyclohexane] + CCO
298.15 K
Conditions	binary diffusion coefficient [m2/s]
x2 = 0.03	9.9e-10
x2 = 0.1	7.7e-10
x2 = 0.3	4.3e-10
x2 = 0.5	4.6e-10
x2 = 0.7	7.3e-10
x2 = 0.9	1.23e-09
x2 = 0.97	1.41e-09

CCO [ethanol] + O
298.15 K
Conditions	binary diffusion coefficient [m2/s]
x1 = 0.1	7e-10
x1 = 0.2	4.1e-10
x1 = 0.3	3.8e-10
x1 = 0.5	5.1e-10
x1 = 0.7	7.6e-10
x1 = 0.9	1.08e-09

CCCCCC [hexane] + CCCO
298.15 K
Conditions	binary diffusion coefficient [m2/s]
x2 = 0	5.2e-09
x2 = 0.03	3.37e-09
x2 = 0.1	2.17e-09
x2 = 0.3	1.38e-09
x2 = 0.5	1.15e-09
x2 = 0.7	1.08e-09
x2 = 0.9	1.09e-09
x2 = 0.97	1.03e-09
x2 = 1	1.02e-09

CCCCCC [hexane] + CCO
298.15 K
Conditions	binary diffusion coefficient [m2/s]
x2 = 0	5.74e-09
x2 = 0.03	4.07e-09
x2 = 0.1	2.41e-09
x2 = 0.3	1.54e-09
x2 = 0.5	1.3e-09
x2 = 0.7	1.3e-09
x2 = 0.9	1.43e-09
x2 = 0.97	1.54e-09
x2 = 1	1.6e-09

CO [methanol] + O
298.15 K
Conditions	binary diffusion coefficient [m2/s]
x1 = 0	1.57e-09
x1 = 0.1	1.22e-09
x1 = 0.3	9.5e-10
x1 = 0.5	1.03e-09
x1 = 0.7	1.37e-09
x1 = 0.9	1.87e-09
x1 = 0.97	2.05e-09

ClC(Cl)(Cl)Cl [tetrachloromethane] + CCCCO
binary diffusion coefficient [m2/s]
Conditions	x2 = 0	x2 = 0.03	x2 = 0.1	x2 = 0.3	x2 = 0.5	x2 = 0.7	x2 = 0.9	x2 = 0.97	x2 = 1
298.15 K	1.47e-09	7e-10	5e-10	2.9e-10	3.2e-10	5.4e-10	6.5e-10	6.9e-10	7.2e-10
308.15 K	1.74e-09	9.3e-10	7.1e-10	5.2e-10	5.6e-10	6.5e-10	8e-10	8.9e-10	9.4e-10

ClC(Cl)(Cl)Cl [tetrachloromethane] + CCCO
298.15 K
Conditions	binary diffusion coefficient [m2/s]
x2 = 0	1.61e-09
x2 = 0.03	8.3e-10
x2 = 0.1	6.1e-10
x2 = 0.3	3.9e-10
x2 = 0.5	4.6e-10
x2 = 0.7	6.6e-10
x2 = 0.9	8.3e-10
x2 = 0.97	9.1e-10
x2 = 1	9.5e-10

ClC(Cl)(Cl)Cl [tetrachloromethane] + CCO
binary diffusion coefficient [m2/s]
Conditions	x2 = 0	x2 = 0.03	x2 = 0.1	x2 = 0.3	x2 = 0.5	x2 = 0.7	x2 = 0.9	x2 = 0.97	x2 = 1
298.15 K	1.9e-09	1.06e-09	8.2e-10	6.4e-10	7.3e-10	9.9e-10	1.32e-09	1.43e-09	1.47e-09
303.15 K	2.15e-09	1.6e-09	9.9e-10	8.3e-10	8.7e-10	1.14e-09	1.45e-09	1.56e-09	1.61e-09
308.15 K	2.24e-09	1.8e-09	1.1e-09	9.5e-10	9.9e-10	1.28e-09	1.6e-09	1.76e-09	1.82e-09

Cc1ccccc1 [toluene] + CCCO
298.15 K
Conditions	binary diffusion coefficient [m2/s]
x2 = 0	2.67e-09
x2 = 0.03	2.37e-09
x2 = 0.1	1.81e-09
x2 = 0.3	1e-09
x2 = 0.5	8.5e-10
x2 = 0.7	1.01e-09
x2 = 0.9	1.28e-09
x2 = 0.97	1.4e-09
x2 = 1	1.46e-09

Cc1ccccc1 [toluene] + CCO
binary diffusion coefficient [m2/s]
Conditions	x2 = 0	x2 = 0.03	x2 = 0.1	x2 = 0.3	x2 = 0.5	x2 = 0.7	x2 = 0.9	x2 = 0.97	x2 = 1
298.15 K	3.12e-09	2.94e-09	2.41e-09	1.22e-09	9.8e-10	1.16e-09	1.55e-09	1.7e-09	1.74e-09
308.15 K	3.61e-09	3.4e-09	2.9e-09	1.7e-09	1.35e-09	1.59e-09	1.89e-09	2.04e-09	2.11e-09
